Data on two compounds can be found in article PMC2685802, “Daptomycin in experimental murine pneumococcal meningitis” (BMC Infectious Diseases, 2009).

Series [1] relates to S. pneumoniae Xen10. Kind of series: Time kill assay. The class given is cell-based, Streptococcus pneumoniae. Particulars: daptomycin 1 μg/ml or vancomycin 2 μg/ml alone and with dexamethasone 100 μg/ml. The source says:
Figure 1 Time kill assay. […] DP, daptomycin; VN, vancomycin; DX, dexamethasone.

Series [2] can be described thus: Serum antibiotic concentration in mice after intraperitoneal dose (microbiological assay). The class given is in vivo. Particulars: single dose, detection limit 0.5 μg/ml. On the procedure: The 30 minute serum concentration of vancomycin or daptomycin in 25–30 gram immunocompetent hairless mice (Charles River Laboratories, Wilmington, MA) was determined following intraperitoneal injection of 40, 50 and 60 mg/kg vancomycin or 20, 30, 40 and 50 mg/kg daptomycin, respectively. Pharmacokinetic profiles were determined by injecting 50 mg/kg vancomycin or 25 mg/kg daptomycin intraperitoneally and obtaining serum samples 30, 60, 120, 180 and 240 minutes post injection. Drug activity was measured using a microbiological assay technique. Standard curves for serum drug level determination were performed by making drug dilutions in pooled mouse serum (Innovative Research, Incorporated, Southfield, MI). The reporter bacteria for the vancomycin and daptomycin bioassays were Bacillus subtilis and Micrococcus luteus, respectively. Zones of growth inhibition were measured to the nearest millimeter. The detection limit for both drugs was 0.5 μg/ml.

For series [3], the system named is Streptococcus pneumoniae A 66.1 serotype 3 (Xen 10). The series is classed as in vivo, mice. On the procedure: This study was approved by the Institutional Animal Care and Use Committee of the Mayo Clinic, Rochester, Minnesota. Ninety-six 25–30 gram immunocompetent hairless mice were divided into three treatment groups. Sixteen hours prior to treatment, mice were anesthetized using ketamine and xylazine (45 mg/kg and 5 mg/kg I.M., respectively) and 3 × 10^4 cfu of bacteria in a 20 μl volume were inoculated into the cisterna magna. The time of treatment was selected as the latest time point at which antimicrobial treatment could realistically lead to recovery. […] At 20 hours post infection an additional dose of vancomycin 50 mg/kg was given to the vancomycin-treated animals. Mice not receiving vancomycin at 20 hours were injected with an equal volume of saline. At 16, 20, and 24 hours post infection, 8, 40 and 48 animals, respectively were re anesthetized and cerebrospinal fluid (CSF) was collected by way of puncture from the cisterna magna (using a 28 G 1/2 needle 0.3 × 13 mm from BD Microlance). CSF white-blood cell count was determined and bacterial burden was quantified in CSF by plating serial 10-fold dilutions in sterile isotonic saline onto blood agar plates. Results were expressed as log10 cfu/ml; the detection limit was 20 cfu/ml of CSF. Following collection of CSF, animals were euthanized with a lethal dose of pentobarbital, their brains collected and placed in 10% neutral buffered formalin.
Bacterial concentrations between treatment groups at each time point were compared using the student t-test. Correlation analysis between log10 bacterial CSF titers and log10 photons/second was calculated using SPSS statistical software. For inflammation, neuronal necrosis, and apoptosis scores, statistical analysis included a nonparametric Kruskal-Wallis test followed by a Dunn's test comparing all treatment groups using a confidence level of 95%.

The conditions of series [4]: human, 6 mg/kg q.d. intravenously (highest FDA-approved dose); no reference given; cited from earlier work.
Series [5] concerns penicillin-resistant pneumococcal strains. As to conditions: cited from earlier work. The source says:
Four studies of daptomycin treatment of experimental meningitis have been reported. […] Similarly, Gerber et al. reported bactericidal activity in a rabbit model of Staphyloco ...

[6] abbreviates: vancomycin 50 mg/kg intraperitoneally, bioassay with Bacillus subtilis.

Like-named read-outs stand apart in the source and are kept apart here. Some results are limits rather than exact numbers.

`CN[C@H](CC(C)C)C(=O)N[C@H]1C(=O)N[C@@H](CC(N)=O)C(=O)N[C@H]2C(=O)N[C@H]3C(=O)N[C@H](C(=O)N[C@H](C(=O)O)c4cc(O)cc(O)c4-c4cc3ccc4O)[C@H](O)c3ccc(c(Cl)c3)Oc3cc2cc(c3O[C@@H]2O[C@H](CO)[C@@H](O)[C@H](O)[C@H]2O[C@H]2C[C@](C)(N)[C@H](O)[C@H](C)O2)Oc2ccc(cc2Cl)[C@H]1O` [vancomycin]: in series [1], the “in vitro bactericidal activity, effect of dexamethasone” value is on record as “not affected”. In series [2] (setting [6]), the “serum level at 30 minutes” value was 55 µg/mL and the “serum level at 3 hours” value was less than 0.5 µg/mL. Also, in series [3] (CSF, mice, accompanied by 1 mg/kg of dexamethasone, daptomycin 25 mg/kg or vancomycin 50 mg/kg i.p.), the “drop of bacterial titers four hours after a single treatment” value stood at 0.43 log10. Moreover, the “CSF titers at 24 hours post infection” value in series [3] (mice, vancomycin 50 mg/kg at 16 and 20 hours or daptomycin 25 mg/kg at 16 hours, i.p., with dexamethasone 1 mg/kg every 6 hours) is recorded as 3.4 log10 cfu/ml.
`CCCCCCCCCC(=O)N[C@@H](Cc1c[nH]c2ccccc12)C(=O)N[C@H](CC(N)=O)C(=O)N[C@@H](CC(=O)O)C(=O)N[C@@H]1C(=O)NCC(=O)N[C@@H](CCCN)C(=O)N[C@@H](CC(=O)O)C(=O)N[C@H](C)C(=O)N[C@@H](CC(=O)O)C(=O)NCC(=O)N[C@H](CO)C(=O)N[C@@H]([C@H](C)CC(=O)O)C(=O)N[C@@H](CC(=O)c2ccccc2N)C(=O)O[C@@H]1C` [daptomycin]: the “in vitro bactericidal activity, effect of dexamethasone” value in series [1] was “not affected”. The compound further showed a level at 4 h in series [2] (hairless (immunocompetent), mouse, serum, ip, daptomycin 25 mg/kg intraperitoneally, bioassay with Micrococcus luteus) of 16 µg/mL. In addition, in series [2] (hairless (immunocompetent), mouse, serum, ip, daptomycin 25 mg/kg intraperitoneally, bioassay with Micrococcus luteus, read-out: serum concentration at 30 minutes), the level at 0.5 h was 127 µg/mL. In series [3] (mouse, in vivo), the “CSF titers at 24 hours post infection” value is 3.9 log10 cfu/ml and the “drop of bacterial titers four hours after a single treatment” value is 1.33 log10. For the same compound, the “serum Cmax” value in series [4] was 90 to 100 µg/mL. Further, in series [5] (compared with ceftriaxone treatment), the “release of [3H]choline (marker of cell wall lysis)” value is listed as “negligible”. Besides, in series [5] (rabbit, in vivo), the “penetration across inflamed meninges” value is 6%.
